Laboratory results reported in patent US20250146022A1, “STABILISING THE HUMAN SPINDLE BY KIFC1/HSET” (MAX-PLANCK-GESELLSCHAFT ZUR FOERDERUNG DER WISSENSCHAFTEN …, priority 2021, published 2025).

Columns and labels:
[1] = system: KIFC1/HSET-depleted aMTOC-free mouse oocytes; experiment: Rescue of spindle polarity in KIFC1/HSET-depleted aMTOC-free mouse oocytes (human oocyte mimics); type: cell-based
Source text: This domain, together with the conserved, microtubule-binding motor domain, allows KIFC1/HSET to organize microtubules via crosslinking and/or sliding (86). To investigate the requirement of different domains in KIFC1/HSET, the inventors expressed a series of truncation mutants in aMTOC-free mouse oocytes (FIG. 7K). […] To examine whether the motor activity is dispensable for the function of KIFC1/HSET in aMTOC-free mouse oocytes, the inventors depleted endogenous KIFC1/HSET by follicle RNAi and restored expression with wild-type HSET or with HSET(N593K), which crosslinks microtubules but cannot slide (87). […] Together, the inventors infer that the appropriate level of KIFC1/HSET's crosslinking and sliding activities are required for proper bipolar spindle assembly in the absence of aMTOCs.
Mouse follicles were microinjected with 3.5 pl of siRNAs at a needle concentration of 2 μM as previously described (11). For rescue experiments, in vitro grown oocytes were microinjected with 3.5 pl of mRNAs. mClover3-HSET mRNA was microinjected at a needle concentration of 275 ng/μl, mClover3-HSET(N593K) mRNA at 275 ng/μl, mClover3-NUMA(S1955D) mRNA at 400 ng/μl, mClover3-NUMA(S1955A) mRNA at 400 ng/μl, mClover3-NUMA(SpM-4A) mRNA at 400 ng/μl, mClover3-NUMA(ΔMTBD1) mRNA at 400 ng/μl and mClover3-NUMA(ΔMTBD2) mRNA at 400 ng/μl. Oocytes were allowed to express the mRNAs for 3-4 h before release.
To obtain mouse MI spindles, oocytes were incubated at 37° C. for around 7 h after released into dbcAMP-free medium. To obtain porcine and bovine MI spindles, oocytes were incubated at 39° C./5% CO2 for around 11 and 12 h, respectively, after released into RO-3306-free medium. To obtain human MI spindles, oocytes were incubated at 37° C. for around 14 and 15 h after NEBD. None of the oocytes used for immunofluorescence analyses was subjected to live imaging before fixation.
Time-lapse movies of live mouse, bovine and porcine oocytes, and fixed human and mouse spindles were analyzed in 3D using Imaris (Bitplane). To determine the stages of meiosis and to score for spindle instability, the timing of meiotic progression was quantified relative to the timing of NEBD. NEBD was defined as the time point when the sharp boundary between the nucleus and cytoplasm disappeared in the differential interference contrast image (for mouse oocytes) or when the nucleus started collapsing in the H2B channel (for bovine and porcine oocytes). Spindle poles were defined as regions of MAP4 or MAP4-MTBD or α-tubulin intensity that prominently protruded from the main microtubule mass. In FIG. 1D, oocytes with bipolar spindle, in which ends of all microtubules converged at the poles, were scored as having focused poles. […] For mouse oocytes, unfocused poles were further classified into mildly unfocused poles (with partially separated microtubule ends) and severely unfocused poles (with fully separated microtubule ends). In FIG. 4D, bovine and porcine oocytes, in which the spindle maintained a barrel-shaped bipolar morphology and a detectable spindle axis, were scored as having stable spindle poles. Oocytes, in which the spindle lost their initial bipolarity and underwent dynamic remodeling of the pole(s) were scored as having unstable spindle poles. […] Oocytes, in which the spindle had more than two poles, were scored as having multipolar spindle. In FIG. 1H, mouse oocytes, in which the spindle had two well-defined poles, were scored as having bipolar spindle. Mouse oocytes, in which the spindle had two poorly defined poles, were scored as having apolar/round spindle. Mouse oocytes, in which the spindle had more than two poles, were scored as having multipolar spindle. […] Mouse oocytes, in which the spindle lost its barrel shape but contains several weakly associated microtubule bundles, were scored as having disorganized spindle.

[2] = system: human tripronuclear (3PN) zygotes; experiment: Live imaging of spindle assembly and chromosome segregation in human 3PN zygotes injected with KIFC1; type: cell-based; conditions: for multipolar / bipolar spindle assembly: human 3PN zygotes, FIG. 9, B to D
Source text: Spindles in human fertilized eggs (zygotes) have also been reported to often be multipolar (6, 7, 122). […] The inventors thus tested if the introduction of exogenous KIFC1 increased the fidelity of spindle assembly and chromosome segregation in human zygotes, by using human tripronuclear (3PN) zygotes. Similar to the zygotes in (6, 7, 122), these zygotes frequently assembled multipolar spindles. […] Furthermore, introduction of mClover3-KIFC1 protein increased the frequency of zygotes with aligned chromosomes at anaphase onset from 20% to 57% (FIG. 9E), and the frequency of zygotes without lagging chromosomes during anaphase from 40% to 71% (FIG. 9F). Thus, introducing exogenous KIFC1 increased the efficiency of bipolar spindle assembly and reduced the risk of aneuploidy in human zygotes.
The use of human 3PN zygotes in this study was approved by the Ärztekammer Niedersachsen under the reference Bo/46/2020. Zygotes were collected from patients who underwent assisted reproduction treatment at Kinderwunschzentrum Göttingen and Fertility Center Berlin. All patients gave informed consent for their 3PN zygotes to be used in this study. For zygotes collected at Kinderwunschzentrum Göttingen, zygotes were cultured in G-1 PLUS medium (Vitrolife) under paraffin oil at 37° C. and 5% CO2. For zygotes collected at Fertility Center Berlin, zygotes were vitrified with Cryolock (FUJIFILM Irvine Scientific) using Vit Kit-Freeze (FUJIFILM Irvine Scientific). To maximize the survival and developmental rate of vitrified-thawed zygotes, zygotes were thawed in 1 ml of prewarmed G-MOPS PLUS (Vitrolife) containing 1 M D-(+)-trehalose (Sigma-Aldrich) at 37° C. for 1 min. Zygotes were then transferred to 300 μl of G-MOPS PLUS containing 0.5 M D-(+)-trehalose at room temperature for 3 min, 300 μl of G-MOPS PLUS containing 0.25 M D-(+)-trehalose at room temperature for 5 min, and 300 μl of G-MOPS PLUS at room temperature for 2 min. Recovered zygotes were cultured in G1-PLUS supplemented with 10% FBS under paraffin oil at 37° C. and 5% CO2. Staining and microinjection of human zygotes were performed as described above for human oocytes.

For “KIFC1/HSET: Recombinant mClover3-tagged human kinesin-14 KIFC1/HSET protein (SEQ ID NO: 1), expressed in 293 cells, microinjected into human oocytes and zygotes”, which “fold higher probability of having a bipolar spindle vs mimics without introduced KIFC1/HSET” value ([1]; FIG. 3H (left bar)) is on record?
The value was 3.2 fold.

And the “difference in percentage of bipolar spindles” value ([1]; from around 30% to 96%)?
The value was 66%.

And the bipolar spindles ([1]; re-introduction of KIFC1/HSET (rescue experiment) in human oocyte mimics, without around 30%, FIG. 3H)?
Its bipolar spindles is “around 96%”.

What about the “frequency of zygotes with aligned chromosomes at anaphase onset” value ([2]; KIFC1-injected human 3PN zygotes, non-injected 20%, FIG. 9E) of the same substance?
The value was 57%.

What about the “frequency of zygotes without lagging chromosomes during anaphase” value ([2]; KIFC1-injected human 3PN zygotes, non-injected 40%, FIG. 9F) of the same substance?
Its value is 71%.

And the “multipolar / bipolar spindle assembly” value [2]?
Its value is “significantly reduces multipolar spindle assembly and/or promoted bipolar spindle assembly”.

What about the “multipolar / bipolar spindle assembly” value ([2]; listed as mClover3-KIFC1) of the same substance?
The value was “significantly reduced multipolar spindle assembly and promoted bipolar spindle assembly”.
